Experiment [1] has as its target T1, human C-terminal DNMT3A (a.a. 623-908) (Homo sapiens, UniProt Q9Y6K1).
T1 construct: The human C-terminal DNMT3A (a.a. 623-908); made in house
Nature of the experiment: DNMT3A assay (restriction-based fluorescence). It counts as biochemical. From the text:
DNMT3A enzyme inhibition was adapted from the restriction-based fluorescence assay protocol described in Ceccaldi et al. (ChemBioChem 2011, 12, 1337-45). Briefly, a 5′-labelled biotin oligonucleotide is hybridized to its complementary strand labelled with 6-carboxyfluorescein at the 3′-end into a 384 well microplate (black Optiplates; Perkin Elmer) pre-coated with avidin. The duplex contains a unique CpG site overlapping with a restriction site of a methylation sensitive restriction enzyme. The human C-terminal DNMT3A (a.a. 623-908), produced as described in Gros et al. (Nucleic Acids Research 2013 Aug. 25), was added in each well (200 ng/well) and mixed with the chemical compounds at desired concentrations and freshly prepared AdoMet (20 μM final concentration) to start the reaction in a total volume of 50 μL. After 1 hour incubation at 37° C. each well were washed three times with PBS, Tween-20 0.05%, NaCl (500 mM) and three more times with PBST. Specific fluorescent signals were detected with the methylation-sensitive restriction enzyme HpyCH4IV (NEB) as described and measured on a Perkin Elmer Envision detector. The percentage of inhibition is reported. The formula used to calculate the percentage of inhibition is [(X−Y)/X]×100, where X is the signal determined in the absence of the inhibitor and Y is the signal obtained in the presence of the inhibitor. The concentration at which 50% of efficacy of inhibition is observed (EC50) was determined by analysis of a concentration range of the tested compound in triplicates. The non-linear regression fittings with sigmoidal dose-response (variable slope) were performed with GraphPad Prism 4.03 (GraphPad Software).

The subject of experiment [2] is Karpas299 human leukemia cells. As to the kind of experiment: Anti-proliferative activity on Karpas 299 cells (ATPLite). The following applies: KARPAS-299, 96 h, treatment days 1-3, viability day 4, mean of at least two experiments, 95% confidence interval in brackets. It counts as cell-based. The procedure: (§1) KG-1 and Karpas299 human leukemia cells were obtained from the ATCC (USA) and cultivated in RPMI 1640 medium (with HEPES and Glutamine, BE12-115F, Lonza, France) supplemented with, respectively, 20% and 15% foetal calf serum (Lonza, France), at 37° C. and under 5% CO2. To measure the anti-proliferative properties of tested molecules, 2×10^4 cells are seeded at day 0 in a 96 wells plate. The compounds to be tested, stored at −20° C. as 10^−2 M stock solution in 100% DMSO, are freshly diluted on day 1 in RPMI 1640 medium, before adding a dose range of 3.2 nM to 10 μM to the cells. This treatment is repeated on day 2 and 3, and on day 4 cell viability is assessed using the ATPLite kit from Perkin (ATPlite 1 Step Luminescence Assay System, ref 3016739), following the provider instructions. The raw data are analyzed with GraphPad Prism software (v4.03) to generate EC50 values corresponding to the compound concentrations giving 50% reduction in cell viability. The values presented are the mean results of at least two independent experiments.
For orientation: ATP-based viability assays read luminescence as a measure of living cells.

Experiment [3] relates to KG-1 human leukemia cells. As to the kind of experiment: Anti-proliferative activity on KG-1 cells (ATPLite). It counts as cell-based. The following applies: KG-1, 96 h, treatment days 1-3, viability day 4, mean of at least two experiments, 95% confidence interval in brackets. How it is done: as §1
In experiment [4] the test system is U87MG cells (human neuronal gliablastoma-astrocytoma-cells). As to the kind of experiment: Anti-proliferative activity on U87MG cells (ATPlite one step). In kind it is cell-based. The following applies: U-87 MG, 72 h incubation. How it is done:
(§2) The antiproliferative activity of compounds was measured in vitro using the ATP quantification method “ATPlite one step assay” (Perkin Elmer ref 6016739) according to the manufacturer conditions.
(§3) Briefly, WM266.4 cells (human melanoma cells) (5×10^4 cells per ml in RPMI1640 medium, 10% FBS, 2 mM glutamine, 50 U/mL penicillin/streptomycin and 1.25 μg/mL fungizone), PANC1 cells (human pancreatic carcinoma cells) (2×10^4 cells per ml in DMEM medium, 10% FBS, 2 mM glutamine, 50 U/mL penicillin/streptomycin and 1.25 μg/mL fungizone), and U87MG cells (human neuronal gliablastoma-astrocytoma-cells) (3×10^4 cells per ml in MEM medium, 10% FBS, 2 mM glutamine, 50 U/mL penicillin/streptomycin and 1.25 μg/mL fungizone) were seeded in 96-well plates, incubated for 24 h and treated with 8 increasing concentrations of test compounds diluted in cells respective mediums, or vehicle in triplicate.
(§4) Cells were then incubated for 72 h at 37° C. in humidified 5% CO2 atmosphere.
(§5) At the end of the experiment, cell viability was evaluated by determining the level of ATP released by viable cells.
(§6) EC50 values were determined with curve fitting analysis method (non linear regression model with a sigmoid dose response, variable Hill slope coefficient) provided by the Prism Software (GraphPad). […]

In experiment [5] the test system is PANC1 cells (human pancreatic carcinoma cells). As to the kind of experiment: Anti-proliferative activity on PANC1 cells (ATPlite one step). In kind it is cell-based. The following applies: PANC-1, 72 h incubation. How it is done: as §2, §3, §4, §5, §6
In experiment [6] the target is T2, His-DNMT1 (182 kDa, human) (Homo sapiens, UniProt P26358).
T2 construct: His; made in house
As to the kind of experiment: DNMT1 assay ([methyl-3H] SAM Flashplate). In kind it is biochemical. How it is done: His-DNMT1 (182 kDa, human) was cloned, expressed and purified as described in Halby et al. (ChemBioChem 2012, 13, 157-65). The reaction was performed in a 10 μL total reaction volume in low volume NBS™ 384-well microplates (Corning), containing the tested compound (up to 1% DMSO), 1 μM of a SAM/[methyl-^3H] SAM (3 TBq/mmol, PerkinElmer) mix in a ratio of 3-to-1 (isotopic dilution 1*:3), 0.3 μM of biotinylated hemimethylated DNA duplex (5′-GATmCGCmCGATGmCGmCGAATmCGmCGAT mCGATGmCGAT-3′ and BIOT-5′-[…] ATC-3′), and 90 nM of DNMT1 in methylation buffer (20 mM HEPES pH 7.2, 1 mM EDTA, 50 mM KCl, 25 μg/mL BSA). The reaction was incubated at 37° C. for 2 hours. 8 μL are then transferred into a streptavidin 96-well scintillant coated Flashplate™ (PerkinElmer) containing 190 μL of 20 μM SAH in 50 mM Tris-HCl pH 7.4. The Flashplate™ was agitated at room temperature for 1 hour, washed three times with 200 μL of 0.05% Tween®-20 in 50 mM Tris-HCl pH 7.4, and read in 200 μL of 50 mM Tris-HCl pH 7.4 on TopCount NXT (PerkinElmer).

For experiment [7], the system named is WM266.4 cells (human melanoma cells). Nature of the experiment: Anti-proliferative activity on WM266.4 cells (ATPlite one step). The following applies: WM 266-4, 72 h incubation, read-out: EC50 (μM) WN226.4. In kind it is cell-based. The procedure:
as §2, §3, §4, §5, §6

One may read the inhibition as the percentage by which the read-out fell short of the control. One may read the EC50 as the concentration that produces a half-maximal response.

Molecules are shown by their SMILES.

T1 sequence (Q9Y6K1 627-912 limits assumed): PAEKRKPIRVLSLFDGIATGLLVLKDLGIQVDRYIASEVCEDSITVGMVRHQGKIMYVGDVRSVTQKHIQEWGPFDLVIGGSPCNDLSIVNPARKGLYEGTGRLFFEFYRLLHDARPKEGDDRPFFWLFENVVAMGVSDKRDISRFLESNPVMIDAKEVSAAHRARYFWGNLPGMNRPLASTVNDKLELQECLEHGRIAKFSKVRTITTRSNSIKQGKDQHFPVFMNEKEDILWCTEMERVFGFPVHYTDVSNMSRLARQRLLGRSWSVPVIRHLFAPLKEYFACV
T2 sequence (P26358 whole entry): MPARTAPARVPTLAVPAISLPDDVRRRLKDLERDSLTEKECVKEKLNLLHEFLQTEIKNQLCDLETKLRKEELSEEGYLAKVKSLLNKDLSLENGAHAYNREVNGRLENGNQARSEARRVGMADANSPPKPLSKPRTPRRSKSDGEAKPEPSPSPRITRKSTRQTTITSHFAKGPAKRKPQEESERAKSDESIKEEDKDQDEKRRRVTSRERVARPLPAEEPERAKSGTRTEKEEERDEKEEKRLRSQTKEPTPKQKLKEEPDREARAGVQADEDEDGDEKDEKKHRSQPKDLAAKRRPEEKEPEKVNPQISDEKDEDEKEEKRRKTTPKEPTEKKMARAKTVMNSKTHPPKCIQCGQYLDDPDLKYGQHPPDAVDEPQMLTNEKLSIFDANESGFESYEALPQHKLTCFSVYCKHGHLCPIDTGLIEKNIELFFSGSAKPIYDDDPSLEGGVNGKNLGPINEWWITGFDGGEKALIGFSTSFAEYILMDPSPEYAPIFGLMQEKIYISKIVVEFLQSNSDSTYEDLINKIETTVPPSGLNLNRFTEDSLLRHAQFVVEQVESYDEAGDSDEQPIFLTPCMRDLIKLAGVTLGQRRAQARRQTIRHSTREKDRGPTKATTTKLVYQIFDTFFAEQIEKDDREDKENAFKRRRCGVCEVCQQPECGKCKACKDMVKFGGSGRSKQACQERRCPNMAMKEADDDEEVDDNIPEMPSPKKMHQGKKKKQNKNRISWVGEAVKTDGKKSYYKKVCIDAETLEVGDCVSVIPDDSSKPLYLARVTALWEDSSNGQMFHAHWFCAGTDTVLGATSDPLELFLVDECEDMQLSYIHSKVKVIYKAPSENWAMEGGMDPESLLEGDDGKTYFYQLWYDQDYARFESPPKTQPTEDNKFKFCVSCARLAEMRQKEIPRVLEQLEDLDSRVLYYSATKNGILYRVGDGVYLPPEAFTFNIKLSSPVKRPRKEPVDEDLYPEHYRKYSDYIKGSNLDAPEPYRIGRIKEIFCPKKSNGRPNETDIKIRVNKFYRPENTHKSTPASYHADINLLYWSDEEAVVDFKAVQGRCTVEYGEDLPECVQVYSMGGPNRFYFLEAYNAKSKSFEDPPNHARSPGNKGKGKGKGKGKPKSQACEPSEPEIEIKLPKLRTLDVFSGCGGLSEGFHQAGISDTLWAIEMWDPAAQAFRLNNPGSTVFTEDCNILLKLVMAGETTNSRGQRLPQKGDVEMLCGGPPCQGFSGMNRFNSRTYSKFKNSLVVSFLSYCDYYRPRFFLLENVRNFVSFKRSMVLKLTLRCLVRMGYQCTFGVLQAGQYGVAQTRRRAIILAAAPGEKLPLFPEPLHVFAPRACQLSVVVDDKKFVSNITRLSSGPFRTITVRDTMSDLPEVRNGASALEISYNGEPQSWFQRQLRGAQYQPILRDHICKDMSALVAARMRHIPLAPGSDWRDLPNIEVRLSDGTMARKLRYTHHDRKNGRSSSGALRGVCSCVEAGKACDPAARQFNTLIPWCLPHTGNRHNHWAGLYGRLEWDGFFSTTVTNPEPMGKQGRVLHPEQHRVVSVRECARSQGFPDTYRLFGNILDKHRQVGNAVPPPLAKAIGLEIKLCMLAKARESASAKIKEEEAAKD

As to `c1ccc(CCCNc2ncnc3cc(OCC4CCN(CCNc5ccnc6ccccc56)CC4)ccc23)cc1` [Compound G, 4-((3-phenylpropyl)amino)-7-((1-(2-(quinolin-4-ylamino)ethyl)piperidin-4-yl)methoxy)quinazoline], in experiment [1] (compound at 10 μM, read-out: DNMT3A (% of inhibition) 10 μM), the inhibition at 10 µM is 81%. In addition, at 20 µM the inhibition in experiment [1] (compound at 20 μM) was 97%. The EC50 in experiment [1] (concentration range in triplicates) worked out at 2.4 µM; in experiment [2], 1.8 µM; in experiment [3], 0.5 µM; in experiment [4], 8.9 µM; in experiment [5], 1.2 µM; in experiment [7], 3.9 µM. Besides, the inhibition at 32 µM in experiment [6] (compound at 32 μM, read-out: DNMT1 (% of inhibition) 32 μM) worked out at 24.5%. Further, in experiment [6] (compound at 100 μM, read-out: DNMT1 (% of inhibition) 100 μM), the inhibition at 100 µM is 91.2%.

For the origin of these results see patent US9951044B2, “Quinazoline derivatives and their use as DNA methyltransferase inhibitors” (PIERRE FABRE MEDICAMENT, priority 2013, dated 2018).
